Measurements published in the NIST ThermoML archive (doi:10.1016/j.fluid.2009.06.008).

Assay: mn = molality of the nth substance listed, in mol/kg
Settings: 101 kPa, Liquid; for viscosity: Capillary tube (Ostwald / Ubbelohde) method; for mass density: Vibrating tube method

O=C[C@H](O)[C@@H](O)[C@H](O)[C@H](O)CO [D-glucose] + O
Settings	mass density [kg/m3]	viscosity [mPa·s]
278.15 K, m1 = 0.2	1019.65	1.694
278.15 K, m1 = 0.4	1031.6	1.873
278.15 K, m1 = 0.6	1043.55	2.074
278.15 K, m1 = 0.8	1055.51	2.3
278.15 K, m1 = 1	1067.46	2.536
278.15 K, m1 = 1.2	1079.41	2.802
283.15 K, m1 = 0.2	1017.74	1.451
283.15 K, m1 = 0.4	1029.58	1.599
283.15 K, m1 = 0.6	1041.42	1.766
283.15 K, m1 = 0.8	1053.25	1.953
283.15 K, m1 = 1	1065.09	2.147
283.15 K, m1 = 1.2	1076.93	2.374
288.15 K, m1 = 0.2	1015.54	1.258
288.15 K, m1 = 0.4	1027.28	1.383
288.15 K, m1 = 0.6	1039.02	1.524
288.15 K, m1 = 0.8	1050.75	1.682
288.15 K, m1 = 1	1062.49	1.849
288.15 K, m1 = 1.2	1074.22	2.029
293.15 K, m1 = 0.2	1013.09	1.104
293.15 K, m1 = 0.4	1024.74	1.21
293.15 K, m1 = 0.6	1036.38	1.329
293.15 K, m1 = 0.8	1048.03	1.46
293.15 K, m1 = 1	1059.67	1.619
293.15 K, m1 = 1.2	1071.32	1.754
298.15 K, m1 = 0.2	1010.39	0.9748
298.15 K, m1 = 0.4	1023.11	1.066
298.15 K, m1 = 0.6	1035.26	1.166
298.15 K, m1 = 0.8	1046.85	1.272
298.15 K, m1 = 1	1057.94	1.395
298.15 K, m1 = 1.2	1068.55	1.528
303.15 K, m1 = 0.2	–	0.8685
303.15 K, m1 = 0.4	1018.93	0.9469
303.15 K, m1 = 0.6	1030.42	1.035
303.15 K, m1 = 0.8	1041.92	1.132
303.15 K, m1 = 1	1053.41	1.236
303.15 K, m1 = 1.2	1064.9	1.343
308.15 K, m1 = 0.2	1004.38	0.7811
308.15 K, m1 = 0.4	1015.81	0.8496
308.15 K, m1 = 0.6	1027.24	0.9264
308.15 K, m1 = 0.8	1038.67	1.01
308.15 K, m1 = 1	1050.1	1.096
308.15 K, m1 = 1.2	1061.53	1.194
